Data as given in publication PMC9038204, “SNX27–Retromer directly binds ESCPE-1 to transfer cargo proteins during endosomal recycling” (PLoS Biology, 2022).
Read-outs that look alike come from different tables or passages of the source. Where no end group is shown, it is not given here.

Assays:
[1] = test system: SNX27; test: GFP trap co-immunoprecipitation of GFP-SNX1/SNX2 constructs from HEK-293T, quantitative western blot: SNX27; format: binding; settings: for SNX27 co-immunoprecipitated (quantitative western blot), mean: Fig. 3F, GFP-tagged SNX1 WT or mutant as bait, HEK-293T, WT set to 100, mean of n = 4; for reduced binding to SNX27: full-length GFP-SNX1 point mutants in HEK293T, versus SNX1 WT
Protocol: (§1) HeLa and HEK-293T cell lines were sourced from ATCC. Authentication was from the ATCC. Cells were grown in DMEM (Sigma-Aldrich) supplemented with 10% (v/v) FCS (Sigma-Aldrich) and penicillin/streptomycin (Gibco, USA) and grown under standard conditions. FuGENE HD (Promega, USA) was used for transient transfection of DNA according to the manufacturer’s instructions. Cycloheximide was used to prevent up-regulation of protein synthesis. In this case, cycloheximide (C7698; Sigma-Aldrich) at 10 μg/ml was added to the cells 48 hours after FuGENE transfection for the indicated time points. For the generation of CRISPR-Cas9 SNX27 knockout HeLa cells, HeLa cells were transfected with pX330 plasmid coding for the gRNA against the gene of interest together with a puromycin resistance–expressing plasmid. Cells were then subjected to puromycin selection for 24 hours. The pooled population of cells was subjected to lysis and western blotting to confirm the knockout. The VPS35 knockout clonal cell line used in this study was characterized previously. For GFP-based immunoprecipitations, HEK293T cells were transfected with GFP constructs using polyethylenimine (Sigma-Aldrich) and expression was allowed for 48 hours.
(§2) For western blotting, cells were lysed in PBS with 1% (v/v) Triton X-100 and protease inhibitor cocktail. The protein concentration was determined with a BCA assay kit (Thermo Fisher Scientific, USA), and equal amounts were resolved on NuPAGE 4% to 12% precast gels (Invitrogen, USA). Blotting was performed onto polyvinylidene fluoride membranes (Immobilon-FL; EMD Millipore, USA) followed by detection using the Odyssey infrared scanning system (LI-COR Biosciences, USA). For GFP-based immunoprecipitations, HEK-293T cells were lysed 48 hours after transfection in immunoprecipitation buffer (50 mM Tris-HCl, 0.5% (v/v) NP-40, and Roche protease inhibitor cocktail) and subjected to GFP trap (ChromoTek, Germany). Immunoblotting was performed using standard procedures. Detection was performed on an Odyssey infrared scanning system (LI-COR Biosciences) using fluorescently labeled secondary antibodies. In using the Odyssey, we routinely performed western blot analysis where a single blot is simultaneously probed with antibodies against 2 proteins of interest (distinct antibody species) followed by visualization with the corresponding secondary antibodies conjugated to distinct spectral dyes.

[2] = test system: SNX6; test: GFP trap co-immunoprecipitation from HEK-293T, quantitative western blot: SNX6; format: binding; settings: Fig. 3F, GFP-tagged SNX1 WT or mutant as bait, WT set to 100, mean of n = 4
Protocol: as §1, §2

[3] = biological target: T1, full-length mouse SNX27 (mSNX27FL) (Mus musculus, UniProt Q3UHD6); test: ITC, hSNX1/2 peptides against mSNX27FL; format: binding; settings: 25°C, 50 mM HEPES pH 7.5, 200 mM NaCl, 5% glycerol, 1 mM β-ME, 800 μM peptide titrated into 20 μM mSNX27FL, single-site fit, mean of at least 2 experiments
T1 construct: DNA encoding full-length mouse SNX27 (mSNX27FL hereafter) was inserted into the pMCSG7 vector; made in house; host or cells: Escherichia coli BL21 CodonPlus (DE3)
Protocol: Human SNX1 and SNX2 peptide sequences were synthesized by Genscript (USA). To obtain the peptide stock solutions at neutral pH, 100 mM Tris-HCl, pH 10.6 was used to dissolve the peptide to a final concentration of 8 mM. The peptides were SNX1_35-51 […], SNX135-51(D45K) […], SNX1_75-92 […], SNX2_16-33 […], SNX2_16-33(DLF/SSS) […], and SNX2_62-82 […].
All microcalorimetry experiments were conducted at 25°C using a PEAQ ITC (Malvern, UK) in 50 mM HEPES (pH 7.5), 200 mM NaCl, 5% glycerol, and 1 mM β-ME (ITC buffer). All proteins were purified by SEC using the same buffer prior to ITC experiments to avoid buffer mismatches. To measure binding of SNX27 to SNX1 proteins, 800 μM of hSNX27FERM was titrated into 20 μM of GST-mSNX1_1-139 or His-SNX1FL. For the binding of SNX1 and SNX2 peptides to SNX27, peptides were diluted 10-fold to 800 μM in ITC buffer peptides and titrated into 20 μM SNX27FL proteins containing the same 1:10 ratio of peptide buffer (100 mM Tris-HCl, pH 10.6). The competitive ITC experiments were carried out by titrating 800 μM SNX1_75-92 peptides into 20 μM proteins with 2-fold molar excess SNX2_16-33 peptide preincubated with SNX27 on ice for an hour. For ITC experiment using SNX1_75-92 against hSNX27 wild-type and single-site mutants, 600 μM SNX1_75-92 peptide was titrated into 20 μM hSNX27 proteins.
The ITC experiments were conducted with 1 injection of 0.4 μL followed by a series of 12 injections of 3.2 μL each with 180-second intervals and a stirring speed of 850 rpm. The heat exchange of interactions was obtained through integrating the observed peaks and background correction by subtracting the heats of dilution. Data were analyzed with Malvern software package by fitting and normalized data to a single-site binding model, yielding the thermodynamic parameters Kd, ΔH, ΔG, and −TΔS for all binding experiments. The stoichiometry was refined initially, and if the value was close to 1, then N was set to exactly 1.0 for calculation. All experiments were performed at least twice to guarantee reproducibility of the data.

[4] = test system: HeLa cells, EEA1 endosomes; test: Colocalization of GFP-tagged SNX27 or SNX1 constructs with EEA1 (Pearson); format: cell-based
Protocol: (§3) Cells were fixed in 4% (v/v) PFA for 20 minutes and washed 3 times in PBS and permeabilized with 0.1% (v/v) Triton X-100. For LAMP1 staining, cells were instead permeabilized by submersion in liquid nitrogen for 20 seconds. Fixed cells were blocked in 1% (w/v) BSA and incubated in primary antibody and respective secondary antibody (Alexa Fluor; Thermo Fisher Scientific) in 1% (w/v) BSA.
(§4) Microscopy images were collected with a confocal laser-scanning microscope (SP5 AOBS; Leica Microsystems, Germany) attached to an inverted epifluorescence microscope (DMI6000; […]). A 63× 1.4 NA oil immersion objective (Plan Apochromat BL; Leica Biosystems, Germany) and the standard SP5 system acquisition software and detector were used. Images were captured at room temperature as z stacks with photomultiplier tube detectors with a photocathode made of gallium-arsenide-phosphide (Leica Microsystems) for collecting light emission. Images were captured using Application Suite AF software (version 2.7.3.9723; Leica Microsystems) and then analyzed with the Volocity 6.3 software (PerkinElmer, USA).

[5] = test system: HeLa cells, SNX6 endosomes; test: Colocalization of GFP-tagged SNX27 or SNX1 constructs with SNX6 (Pearson); format: cell-based
Protocol: as §3, §4

[6] = test system: HeLa cells, endogenous GLUT1; test: Cycloheximide degradation assay, GLUT1 level; format: cell-based; settings: for GLUT1 level, 0h: 0h (set to 100)
Protocol: as §1, §2

[7] = test system: HeLa cells, endogenous ITGA5; test: Cycloheximide degradation assay, ITGA5 level; format: cell-based; settings: for ITGa5 level, 0h: 0h (set to 100)
Protocol: as §1, §2

[8] = 8h relative to 0h = 100, replicate n1, Fig. 6C
[9] = 8h relative to 0h = 100, replicate n2, Fig. 6C
[10] = 8h relative to 0h = 100, replicate n3, Fig. 6C

## D45K
[1]; GFP trap
  SNX27 co-immunoprecipitated (quantitative western blot), mean: 45.07
[2]
  SNX6 co-immunoprecipitated (quantitative western blot), mean: 102

## D87K
[1]; GFP trap
  SNX27 co-immunoprecipitated (quantitative western blot), mean: 34.69
[2]
  SNX6 co-immunoprecipitated (quantitative western blot), mean: 115.6

## E42K
[1]; GFP trap
  SNX27 co-immunoprecipitated (quantitative western blot), mean: 52.35
[2]
  SNX6 co-immunoprecipitated (quantitative western blot), mean: 105.5

## E44K
[1]; GFP trap
  SNX27 co-immunoprecipitated (quantitative western blot), mean: 63.19
[2]
  SNX6 co-immunoprecipitated (quantitative western blot), mean: 113.2

## E84K
[1]; GFP trap
  SNX27 co-immunoprecipitated (quantitative western blot), mean: 45.59
[2]
  SNX6 co-immunoprecipitated (quantitative western blot), mean: 104.1

## EAGDSDTEGEDIFTGAA [SNX1_35-51]
[3]; read-out: Kd
  Kd: 33.4 ± 1.89 µM

## EAGDSDTEGEKIFTGAA [SNX1_35-51(D45K), SNX1 35–51 peptide with charge swap mutation D45K]
[3]; listed as SNX1(D45K)
  Kd: no detectable binding
[3]; listed as hSNX135-51 (D45K)
  Kd: No binding detected

## F47K
[1]; GFP trap
  SNX27 co-immunoprecipitated (quantitative western blot), mean: 42.86
[2]
  SNX6 co-immunoprecipitated (quantitative western blot), mean: 98.51

## F89D
[1]; GFP trap
  SNX27 co-immunoprecipitated (quantitative western blot), mean: 41.68
[2]
  SNX6 co-immunoprecipitated (quantitative western blot), mean: 109.4

## GFP-SNX1(D45K): full-length GFP-SNX1 point mutant in the first aDLF motif
[1]; Fig 3F
  reduced binding to SNX27: around 50%

## GFP-SNX1(D45K,D87K): double mutant targeting key residues in both aDLF motifs of SNX1
[1]; Fig 3F, S2B Fig, double aDLF mutants in HEK293T, GFP trap
  SNX27 binding, in words: near undetectable levels

## GFP-SNX1(E42K): full-length GFP-SNX1 point mutant in the first aDLF motif
[1]; Fig 3F
  reduced binding to SNX27: around 50%

## GFP-SNX1(E44K): full-length GFP-SNX1 point mutant in the first aDLF motif
[1]; Fig 3F
  reduced binding to SNX27: around 50%

## GFP-SNX1(F47K): full-length GFP-SNX1 point mutant in the first aDLF motif
[1]; Fig 3F
  reduced binding to SNX27: around 50%

## GFP-SNX1(I46K): full-length GFP-SNX1 point mutant in the first aDLF motif
[1]; Fig 3F
  reduced binding to SNX27: around 50%

## GFP-SNX1: GFP-tagged full-length SNX1
[4]; mean of n = 3
  colocalization with EEA1 (SNX1 vs EEA1), mean: 0.4267
[4]; replicate n1
  colocalization with EEA1 (SNX1 vs EEA1): 0.53
[4]; replicate n2
  colocalization with EEA1 (SNX1 vs EEA1): 0.34
[4]; replicate n3
  colocalization with EEA1 (SNX1 vs EEA1): 0.41
[5]; mean of n = 3
  colocalization with SNX6 (SNX1 vs SNX6), mean: 0.6597
[5]; replicate n1
  colocalization with SNX6 (SNX1 vs SNX6): 0.81
[5]; replicate n2
  colocalization with SNX6 (SNX1 vs SNX6): 0.506
[5]; replicate n3
  colocalization with SNX6 (SNX1 vs SNX6): 0.663

## I46K
[1]; GFP trap
  SNX27 co-immunoprecipitated (quantitative western blot), mean: 47.55
[2]
  SNX6 co-immunoprecipitated (quantitative western blot), mean: 90.56

## KO +GFP-SNX1
[6]; replicate n1, Fig. 6C
  GLUT1 level, 0h: 100
[6]; replicate n2, Fig. 6C
  GLUT1 level, 0h: 100
[6]; replicate n3, Fig. 6C
  GLUT1 level, 0h: 100
[6]; 0h, mean of n = 3, Fig. 6C
  GLUT1 level, 0h, Mean 1: 100
[6]; 8h relative to 0h = 100, mean of n = 3, Fig. 6C
  GLUT1 level, 8h, Mean 2: 106.2
[6]; [8]
  GLUT1 level, 8h: 90.4645
[6]; [9]
  GLUT1 level, 8h: 112.847
[6]; [10]
  GLUT1 level, 8h: 115.364
[7]; replicate n1, Fig. 6C
  ITGa5 level, 0h: 100
[7]; replicate n2, Fig. 6C
  ITGa5 level, 0h: 100
[7]; replicate n3, Fig. 6C
  ITGa5 level, 0h: 100
[7]; 0h, mean of n = 3, right-hand (unlabelled) statistics block, Fig. 6C
  ITGa5 level, 0h, Mean 1: 100
[7]; [8]
  ITGa5 level, 8h: 98.9429
[7]; [9]
  ITGa5 level, 8h: 105.348
[7]; [10]
  ITGa5 level, 8h: 145.221

## TDFEDLEDGESSSTSTVS [SNX2_16-33(DLF/SSS), SNX2 16–33 peptide with triple mutation DLF-SSS]
[3]; listed as SNX2(DLF-SSS)
  Kd: no detectable binding
[3]; listed as hSNX216-33 (DLF-SSS)
  Kd: No binding detected

## TEVVLDDDREDLFAEATEEVS [SNX2_62-82]
[3]; read-out: Kd
  Kd: 22.6 ± 1.89 µM
